Laboratory results from patent US20250387462A1, “LIPID NANOPARTICLES FOR […] OF NUCLEIC ACIDS AND VACCINE FOR THE PREVENTION OF TU[…] OTHER MYCOBACTERIAL INFECTIONS” (priority 2024, published 2025).

Key:
[1] = Apparent solubility of phosphatidylserine salts in ethanol (shake flask); format: physicochemical; conditions: 21 °C, organic solvent or mixture, thermodynamic from solid, 100% ethanol, room temperature, average±SD (N=3)
Protocol: Apparent solubilities of phosphatidylserine salts in ethanol were determined by shake flask technique. Sodium and ammonium salts of phosphatidylserines in the powder form were obtained from Avanti Polar Lipids (Alabama, USA). Aliquots of phosphatidylserine salt powder were placed in 12×75 borosilicate glass tubes in triplicate. Three mL of 200 proof ethanol (catalog number E-7023, MilliporeSigma, USA) were added, the tubes were closed with polyethylene snap caps, agitated using vortex mixer for 10-15 s to obtain uniform suspensions, and placed in a horizontal position on a rocking platform at room temperature (20-22° C.) overnight. The ambient temperature at the end of incubation was 20.4-20.9° C. After 24 hours incubation, the suspensions were visually checked for the presence of a solid phase, allowed to settle under gravity, and the supernatant solutions were passed through a 0.2-μm PTFE syringe membrane filters. The first 0.5 ml of the filtrate was discarded, the next 1 ml was collected, and phosphatidylserine in the filtrates was quantified by phospholipid phosphate assay as follows: 20 μL aliquots of the filtrate were taken in triplicate into glass tubes, ethanol was evaporated in a stream of argon at 70° C., and the residue was digested in a mixture of 60 μL concentrated sulfuric acid and 20 μL 30% hydrogen peroxide for 10 min at 180-190° C. The digested samples were diluted with 1 mL of deionized water, 20 μL of 10% sodium sulfite was added to destroy any residual peroxide, and the samples were incubated on a boiling water bath for 15 min to hydrolyze any condensed phosphate species. The samples were chilled down to room temperature, mixed with 0.2 mL of 2% (w/w) ammonium molybdate solution and 20 μL of 10% (w/w) ascorbic acid solution, incubated on a boiling water bath for 10 min, and chilled down in a water bath at room temperature. The phosphate concentration was determined from the optical density of the formed blue phosphomolybdic acid at 825 nm using five-point standard curve from concurrently run standards prepared from the NIST-traceable commercial phosphate standard solution diluted to cover the range of 0-2 mM phosphate (coefficient of determination R^2>0.9999). Solubility of phosphatidylserine salts was expressed in molarity units of phosphatidylserine (Table 28). The data are average±SD (N=3).

[2] = In vivo metabolism of ionizable lipid after intramuscular injection
Text: We have observed that in vivo metabolism of the KC3-OA lipids after intramuscular injection is slow. This is not unexpected because there are no ester linkages in the lipid tail that would allow for the release of the lipid head group and subsequent clearance from the body. We have identified multiple biodegradable ICLs that differ in the length of the lipid tail, the location and orientation of the ester linkage, and the inclusion of a double bond in the lipid tail.

[3] = test system: Mtb-specific CD4 and CD8 T cells; assay: Mtb antigen-specific splenic CD4 and CD8 T cell responses after mRNA-LNP vaccination of CB6F1 or B6C3F1 mice (peptide pool stimulation, intracellular cytokines); format: in vivo; conditions: 1 ug or 0.2 ug i.m., boost 5 weeks, 8 days later, lipid in DPPS-targeted LNP
[4] = test system: MutuDC1940 cells; assay: mCherry mRNA transfection efficiency of LNPs in murine dendritic cells (flow cytometry); format: cell-based; conditions: lipid in LNPs, even in the presence of DPPS targeting lipid
Protocol: • 1. MutuDC1940 cells (Applied Biological Materials, T0528) were grown according to supplier's instructions in T75 flasks. They were plated at 180,000 cells/well into 24-well plate one day prior to transfection. • 2. LNPs were added in triplicate to each well at the desired mRNA concentration (e.g. 1 μg/mL) in 1 mL media and after 24 h the cells were washed once with DPBS (VWR 02-0119-1000). • 3. 0.2 mL of DPBS (plus 5 mM EDTA, pH 7.4) was then added to facilitate detachment. • 4. The cells were placed at 37° C. for 3 min, until detached. • 5. 0.5 ml DPBS added to each well and the liquid transferred to a flow cytometry tube (Falcon 5 mL #352054). • 6. The tube was centrifuged at 1100 rpm for 3-5 min and the liquid poured off. • 7. 100 μL of Zombie Violet (Biolegend) (diluted 1:500 in PBS) was added to each tube. • 8. The tubes were gently tapped to resuspend cells and placed in the dark for 15 min at RT. • 9. […]
Cells suspensions were analyzed by an Attune NXT flow cytometer using the VL1 and YL2 for live/dead and mCherry fluorescence signals respectively. […]
The aim of this study was to explore the effect of different KC2 and KC3 ICLs on transfection efficiency in murine dendritic cells. […] Two other variants evaluated have monounsaturated alkyl chains with KC3-OA being 18 carbons in length and KC3C17(8:1) having 17 carbons. […]

| Structure (SMILES) | solubility at 24 h [1] [mM] | also measured |
| --- | --- | --- |
| CCCCCCCCCCCCCCCCCC(=O)OC[C@H](COP(=O)(O)OC[C@H](N)C(=O)O)OC(=O)CCCCCCCCCCCCCCCCC.N [DSPS ammonium] | 0.034 ± 0.004 |  |
| CCCCCCCCCCCCCCCC(=O)OC[C@H](COP(=O)(O)OC[C@H](N)C(=O)O)OC(=O)CCCCCCCCCCCCCCC.N [DPPS ammonium] | 0.865 ± 0.06 |  |
| CCCCCCCC/C=C\CCCCCCCCC1(CCCCCCCC/C=C\CCCCCCCC)OC[C@H](CCCN(C)C)O1 [KC3-OA, 3-((S)-2,2-di((Z)-octadec-9-en-1-yl)-1,3-dioxolan-4-yl)-N,N-dimethylpropan-1-amine] |  | in vivo metabolism after intramuscular injection [2]: slow |
| CC(C)CCCC(C)CCCC(C)CCOC(=O)CCCCCCCC1(CCCCCCCC(=O)OCCC(C)CCCC(C)CCCC(C)C)OCC(CCCN(C)C)O1 (stereo not shown) [KC3-X1-PH5] |  | CD4 and CD8 T cell magnitude compared to KC3-OA [3]: statistically performed better than KC3-OA |
| CCCCCCCCCCCCCCCC(=O)OC[C@H](COP(=O)(O)OC[C@H](N)C(=O)[O-])OC(=O)CCCCCCCCCCCCCCC.[Na+] [DPPS sodium] | 0.201 ± 0.004 |  |
| CCCCCCCCCCCCCCCCCC(=O)OC[C@H](COP(=O)(O)OC[C@H](N)C(=O)[O-])OC(=O)CCCCCCCCCCCCCCCCC.[Na+] [DSPS sodium] | 0.111 ± 0.009 |  |
| CCCCCCCCCCCCCCCCCC1(CCCCCCCCCCCCCCCCC)OC[C@H](CCCN(C)C)O1 [KC3-17, (S)-3-(2,2-diheptadecyl-1,3-dioxolan-4-yl)-N,N-dimethylpropan-1-amine] |  | transfection activity in murine dendritic cells (in words) [4]: completely inactive |
